Assay results published in PubChem BioAssay (NCI).
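The compound was tested at five concentrations on cells cultured in 96-well plates, with a 48-hour exposure period. TGI: concentration producing complete growth inhibition.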

Columns and labels:
Experiment in all cases: NCI tumour cell line growth inhibition, 48 h
786-0 renal = test system: 786-0 renal
IGROV1 ovarian = test system: IGROV1 ovarian
KM12 colon = test system: KM12 colon
SF-268 CNS = test system: SF-268 CNS
SF-295 CNS = test system: SF-295 CNS
SK-OV-3 ovarian = test system: SK-OV-3 ovarian
SN12C renal = test system: SN12C renal
SNB-19 CNS = test system: SNB-19 CNS
SW-620 colon = test system: SW-620 colon
UACC-257 melanoma = test system: UACC-257 melanoma

SMILES	TGI (786-0 renal)	TGI (IGROV1 ovarian)	TGI (KM12 colon)	TGI (SF-268 CNS)	TGI (SF-295 CNS)	TGI (SK-OV-3 ovarian)	TGI (SN12C renal)	TGI (SNB-19 CNS)	TGI (SW-620 colon)	TGI (UACC-257 melanoma)
O=C1c2ccccc2-c2nc3ccncc3n21	> 100 µM	> 100 µM	> 100 µM	> 100 µM	> 100 µM	> 100 µM	> 100 µM	> 100 µM	> 100 µM	> 100 µM
C=C(C)C1CC(=O)C(C)=C(O)C1 (stereo not given)	> 100 µM	> 100 µM	> 100 µM	> 100 µM	> 100 µM	> 100 µM	> 100 µM	> 100 µM	> 100 µM	> 100 µM
Oc1ccc(C(O)C2CCCCN2)cc1O (stereo not given)	35.2 µM	> 100 µM	> 100 µM	> 100 µM	> 100 µM	> 100 µM	> 100 µM	> 100 µM	> 100 µM	> 100 µM
CC(=O)n1[nH]c(=O)n(-c2ccc(Cl)cc2)c1=O	> 100 µM	> 100 µM	> 100 µM	> 100 µM	> 100 µM	> 100 µM	> 100 µM	> 100 µM	> 100 µM	> 100 µM
COc1cc2c(/C=C3/C(=O)Nc4ccccc43)c(Cl)n(Cc3ccc(Cl)cc3)c2cc1C	1.4 µM	16 µM	1.02 µM	21.3 µM	3.06 µM	2.85 µM	1.06 µM	15.8 µM	17.5 µM	8.43 µM
COc1cccc2c1C(=O)c1c(O)c3c(c(O)c1C2=O)C[C@@](O)(C(C)=O)CC3OC1CC(OC2CC(N)C(O)C(C)O2)C(O)C(C)O1 (stereo not given in full)	> 100 µM	> 100 µM	> 100 µM	> 100 µM	> 100 µM	> 100 µM	> 100 µM	> 85.1 µM	> 100 µM	> 100 µM
O=C1/C(=C/c2ccccc2)Oc2cc(O)ccc21	> 100 µM	> 100 µM	> 100 µM	> 100 µM	> 100 µM	> 100 µM	> 100 µM	> 100 µM	> 100 µM	> 100 µM
CCCCCC[C@H]([C@H](C)O)n1cnc2c(N)ncnc21	> 100 µM	> 100 µM	> 100 µM	> 100 µM	> 100 µM	> 100 µM	> 100 µM	> 100 µM	> 100 µM	> 100 µM
Clc1ccc2c(c1)N(CCCN1CCCC13CCCCC3)c1ccccc1S2	23.7 µM	30.3 µM	27.7 µM	> 58.7 µM	29.2 µM	57.7 µM	26.8 µM	34.3 µM	40.7 µM	24.4 µM
CCOC(=O)c1cc(-c2ccc(OC)cc2)c([N+](=O)[O-])[nH]1	> 10 µM	> 10 µM	> 10 µM	> 10 µM	> 10 µM	> 10 µM	> 10 µM	> 10 µM	> 10 µM	> 10 µM
CC(=O)NC1C(OCc2ccccc2)OC(CO)C(O)C1OC(C)C(=O)N[C@@H](C)C(=O)N[C@H](CCC(=O)NCCNCCNc1c2ccccc2nc2cccc([N+](=O)[O-])c12)C(N)=O (stereo not given in full)	0.921 µM	0.672 µM	0.352 µM	2.14 µM	1.79 µM	2.05 µM	0.99 µM	1.86 µM	> 38.1 µM	0.753 µM
CC(C)(CO[C@H]1C[C@H]2CC[C@@]1(C)C2(C)C)[N+](=O)[O-]	27.9 µM	> 100 µM	32.4 µM	> 100 µM	33.9 µM	> 100 µM	> 100 µM	37.2 µM	59.8 µM	36.9 µM
COc1cc2c(cc1OC)C(=O)N(c1ccc(OCCN3CCCC3)cc1)C2	> 100 µM	> 100 µM	> 100 µM	> 100 µM	> 100 µM	> 100 µM	> 100 µM	> 100 µM	> 100 µM	> 100 µM
O=c1c2cc(Br)cc(Br)c2[nH]c(=S)n1-c1ccc(N=Nc2ccc(O)c3cccnc23)cc1	> 100 µM	34.5 µM	> 100 µM	57.5 µM	> 100 µM	> 100 µM	> 100 µM	61.2 µM	> 100 µM	> 100 µM
CCN(CC)C(=S)SC(C(=O)Nc1nnc(-c2ccc(Cl)cc2)o1)c1ccccc1 (stereo not given)	39 µM	8.33 µM	58.2 µM	67 µM	48.2 µM	31.4 µM	38.2 µM	> 100 µM	35.9 µM	> 100 µM
Cc1cn(CCCCCCOC(=O)NC(CCCNC(N)=O)C(=O)O)c(=O)[nH]c1=O (stereo not given)	> 100 µM	> 100 µM	> 100 µM	> 100 µM	> 100 µM	> 100 µM	> 100 µM	> 100 µM	> 100 µM	> 100 µM
O=C(CNc1ccccc1C(=O)O)Nn1cnc2ccc(S(=O)(=O)Nc3ccccc3C(=O)O)cc2c1=O	> 100 µM	> 100 µM	> 100 µM	> 100 µM	> 100 µM	> 100 µM	> 100 µM	> 100 µM	> 100 µM	> 100 µM
CC1=NN(C(=O)CC(=O)Nc2cccc(C)c2)C(=O)C1N=Nc1ccc(S(=O)(=O)CCOS(=O)(=O)O)cc1 (stereo not given)	12.9 µM	12.4 µM	13.9 µM	28 µM	11.3 µM	17 µM	5.51 µM	22.3 µM	14.5 µM	23.1 µM
Cn1/c(=N\N=C2\C=C3CCCCC3(C)CC2)sc2ccccc21 (stereo not given)	> 100 µM	> 100 µM	> 100 µM	> 100 µM	> 100 µM	> 100 µM	> 100 µM	> 100 µM	> 100 µM	> 100 µM
